Experimental data from ChEMBL document CHEMBL1144972, “Benzo[f]naphtyridones: a new family of topical antibacterial agents active on multi-resistant Gram-positive pathogens” (2003).
≈ marks a conversion by molar mass, not a printed value.

What was measured:
Type in all cases: functional
Streptococcus pyogenes = assay: Minimum inhibitory concentration against Streptococcus pyogenes Dig 7
Staphylococcus aureus [1] = assay: Minimum inhibitory concentration against Staphylococcus aureus AS5155
Staphylococcus aureus [2] = assay: Minimum inhibitory concentration against Staphylococcus aureus RN4220

| SMILES | MIC (Streptococcus pyogenes) [µg/mL] | MIC (Staphylococcus aureus [1]) [µg/mL] | MIC (Staphylococcus aureus [2]) [µg/mL] |
| --- | --- | --- | --- |
| Cn1cc(C(=O)O)c(=O)c2c3ccc(F)c(N4CCN(c5cccc(C(F)(F)F)c5)CC4)c3ncc21 | 16 (≈ 32 µM) | 4 (≈ 7.99 µM) | 2 (≈ 4 µM) |
| Cn1cc(C(=O)O)c(=O)c2c3cc(F)c(N4CCCC(C)(C)C4)cc3ncc21 | 4 (≈ 10.4 µM) | 4 (≈ 10.4 µM) | 4 (≈ 10.4 µM) |
| Cn1cc(C(=O)O)c(=O)c2c3cc(N4C[C@@]5(C)C[C@@H]4CC(C)(C)C5)c(F)cc3ncc21 | 4 (≈ 9.45 µM) | 2 (≈ 4.72 µM) | 2 (≈ 4.72 µM) |
| Cn1cc(C(=O)O)c(=O)c2c3cc(N4CCN(c5ccc(Cl)c(F)c5)CC4)c(Cl)c(F)c3ncc21 | 16 (≈ 30.8 µM) | 1 (≈ 1.93 µM) | 2 (≈ 3.85 µM) |
| Cc1ccc(N2CCN(c3ccc4c(ncc5c4c(=O)c(C(=O)O)cn5C)c3F)CC2)cc1F | 16 (≈ 34.4 µM) | 2 (≈ 4.31 µM) | 4 (≈ 8.61 µM) |
| CCn1cc(C(=O)O)c(=O)c2cc(F)c(N3CCN(C)CC3)cc21 [PEFLOXACIN] | 8 (≈ 24 µM) | 64 (≈ 192 µM) | 0.5 (≈ 1.5 µM) |

Compounds with a lower MIC (Streptococcus pyogenes), results first:

| MIC (Streptococcus pyogenes) [µg/mL] | MIC (Staphylococcus aureus [1]) [µg/mL] | MIC (Staphylococcus aureus [2]) [µg/mL] | SMILES |
| --- | --- | --- | --- |
| 2 (≈ 4.01 µM) | 1 (≈ 2 µM) | 1 (≈ 2 µM) | Cc1ccc(N2CCN(c3cc4c(ncc5c4c(=O)c(C(=O)O)cn5C)c(F)c3Cl)CC2)cc1F |
| 0.5 | 2 | 0.25 | C[N+](C)(C)CCO.Cn1cc(C(=O)[O-])c(=O)c2cc3cc(F)c(N4CCN(c5ccc(F)cc5)CC4)cc3nc21 |
| 0.12 (≈ 0.24 µM) | 1 (≈ 2 µM) | 0.5 (≈ 0.999 µM) | C/C(=C\C(=O)OCCCCCCCCC(=O)O)C[C@@H]1OC[C@H](C[C@@H]2O[C@H]2[C@@H](C)[C@H](C)O)[C@@H](O)[C@H]1O [MUPIROCIN] |
